Test results taken from ChEMBL document CHEMBL5215006, “Antitumor Activity of Piceamycin by Upregulation of N-Myc Downstream-Regulated Gene 1 in Human Colorectal Cancer Cells” (J Nat Prod, 2022).
Calls of active or inactive are those of the source. The calls are words filed in the database; no cut-off is given here.

Experiments:
HCT-116 [1] = experiment: Downregulation of c-Myc protein expression in human HCT-116 cells at 0.3 uM incubated for 24 hrs by immunoblotting assay; type: functional, cell-based
SW480 [2] = experiment: Anti-migratory activity against human SW480 cells assessed as upregulation of E-cadherin protein expression at 0.35 to 1.4 uM incubated for 24 hrs by immunoblotting assay; type: functional, cell-based; settings: dose 0.35-1.4 µM
HCT-116 [3] = experiment: Induction of apoptosis in human HCT-116 cells assessed as early apoptotic cells at 0.3 uM incubated for 48 hrs by Annexin V-FITC/PI staining based flow cytometry analysis (Rvb= 2.51%); type: functional
HCT-116 [4] = experiment: Antitumor activity against human HCT-116 cells xenografted Balb/c mouse assessed as decrease in Ki67 protein expression at 1 mg/kg,ip administrated for 18 days by 3 times per week by immunoblotting assay; type: functional, organism-based; settings: time 18.0 day
SW480 [5] = experiment: Antitumor activity against human SW480 cells assessed as decrease in c-Myc expression at 0.35 to 1.4 uM incubated for 24 hrs by immunoblotting assay; type: functional, cell-based; settings: dose 0.35-1.4 µM
HCT-116 [6] = experiment: Antimigratory activity against highly liver metastatic human HCT-116 cells assessed as upregulation of E-cadherin gene expression at 0.075 to 0.3 uM incubated for 24 hrs by RT-PCR method; type: functional, cell-based; settings: dose 0.075-0.3 µM
SW480 [7] = experiment: Anti-migratory activity against human SW480 cells assessed as downregulation of Snail protein expression at 0.35 to 1.4 uM incubated for 24 hrs by immunoblotting assay; type: functional, cell-based; settings: dose 0.35-1.4 µM
SW480 [8] = experiment: Antiproliferative activity against human SW480 cells assessed as cell growth inhibition incubated for 72 hrs by SRB assay; type: functional, cell-based; settings: SW480, 72 h
HCT-116 [9] = experiment: Induction of apoptosis in human HCT-116 cells assessed as late apoptotic cells at 0.15 uM incubated for 48 hrs by Annexin V-FITC/PI staining based flow cytometry analysis (Rvb= 3.18%); type: functional
SW480 [10] = experiment: Cell cycle arrest in human SW480 cells assessed as accumulation at G0/G1 phase at 1.4 uM incubated for 24 hrs by RNaseA/propidium iodide staining based flow cytometry (reference value: 54.49 %); type: functional
HCT-116 [11] = experiment: Induction of apoptosis in human HCT-116 cells assessed as downregulation of survivin expression at 0.3 uM measured at 12 to 48 hrs by immunoblotting assay; type: functional, cell-based; settings: time 12-48 hrs, TDE = time-dependent effect
HCT-116 [12] = experiment: Induction of apoptosis in human HCT-116 cells assessed as late apoptotic cells at 0.075 uM incubated for 48 hrs by Annexin V-FITC/PI staining based flow cytometry analysis (Rvb= 3.18%); type: functional
HCT-116 [13] = experiment: Cell cycle arrest in human HCT-116 cells assessed as accumulation at G2/M phase at 0.3 uM incubated for 24 hrs by RNaseA/propidium iodide staining based flow cytometry (reference value: 28.41 %); type: functional
HCT-116 [14] = experiment: Antitumor activity against human HCT-116 cells assessed as decrease in c-Myc expression at 0.075 to 0.3 uM incubated for 24 hrs by immunoblotting assay; type: functional, cell-based; settings: dose 0.075-0.3 µM
HCT-116 [15] = experiment: Cell cycle arrest in human HCT-116 cells assessed as accumulation at G2/M phase at 0.075 uM incubated for 24 hrs by RNaseA/propidium iodide staining based flow cytometry (reference value: 28.41 %); type: functional
HCT-116 [16] = experiment: Antimigratory activity against highly liver metastatic human HCT-116 cells assessed as downregulation of N-cadherin protein expression at 0.075 to 0.3 uM incubated for 24 hrs by immunoblotting assay; type: functional, cell-based; settings: dose 0.075-0.3 µM
HCT-116 [17] = experiment: Antiproliferative activity against human HCT-116 cells assessed as cell growth inhibition incubated for 72 hrs by SRB assay; type: functional, cell-based; settings: HCT-116, 72 h
HCT-116 [18] = experiment: Cell cycle arrest in human HCT-116 cells assessed as accumulation at G0/G1 phase at 0.3 uM incubated upto 48 hrs by RNaseA/propidium iodide staining based flow cytometry; type: functional
HCT-116 [19] = experiment: Antitumor activity against human HCT-116 cells assessed as upregulation of NDRG1 protein expression at 0.075 to 0.3 uM incubated for 24 hrs by immunoblotting assay; type: functional, cell-based; settings: dose 0.075-0.3 µM, DDE = dose-dependent effect
HCT-116 [20] = experiment: Antimigratory activity against highly liver metastatic human HCT-116 cells assessed as upregulation of E-cadherin protein expression at 0.075 to 0.3 uM incubated for 24 hrs by immunoblotting assay; type: functional, cell-based; settings: dose 0.075-0.3 µM
SW480 [21] = experiment: Cell cycle arrest in human SW480 cells assessed as accumulation at G2/M phase at 1.4 uM incubated for 24 hrs by RNaseA/propidium iodide staining based flow cytometry (reference value: 24.74 %); type: functional
HCT-116 [22] = experiment: Induction of apoptosis in human HCT-116 cells assessed as viable cells at 0.15 uM incubated for 48 hrs by Annexin V-FITC/PI staining based flow cytometry analysis (Rvb= 94.18%); type: functional; settings: read-out: Activity
HCT-116 [23] = experiment: Anti-migratory activity against human HCT-116 cells assessed as downregulation of N-cadherin protein expression at 0.075 to 0.3 uM incubated for 24 hrs by immunoblotting assay; type: functional, cell-based; settings: dose 0.075-0.3 µM
SW480 [24] = experiment: Cell cycle arrest in human SW480 cells assessed as accumulation at S phase at 0.35 uM incubated for 24 hrs by RNaseA/propidium iodide staining based flow cytometry (reference value: 16.7 %); type: functional
SW480 [25] = experiment: Induction of apoptosis in human SW480 cells assessed as early apoptotic cells at 0.7 uM incubated for 48 hrs by Annexin V-FITC/PI staining based flow cytometry analysis (Rvb= 2.07%); type: functional
HCT-116 [26] = experiment: Induction of apoptosis in human HCT-116 cells assessed as necrotic cells at 0.3 uM incubated for 48 hrs by Annexin V-FITC/PI staining based flow cytometry analysis (Rvb= 0.13%); type: functional
HCT-116 [27] = experiment: Antitumor activity against human HCT-116 cells xenografted Balb/c mouse assessed as reduction in tumor growth at 1 mg/kg,ip administrated for 18 days by 3 times per week; type: functional; parameters: scale not given: the % may be the effect or the level left; settings: time 18 day
SW480 [28] = experiment: Anti-migratory activity against human SW480 cells assessed as upregulation of E-cadherin gene expression at 0.35 to 1.4 uM incubated for 24 hrs by RT-PCR assay; type: functional, cell-based; settings: dose 0.35-1.4 µM
HCT-116 [29] = experiment: Induction of apoptosis in human HCT-116 cells assessed as necrotic cells at 0.15 uM incubated for 48 hrs by Annexin V-FITC/PI staining based flow cytometry analysis (Rvb= 0.13%); type: functional
HCT-116 [30] = experiment: Cell cycle arrest in human HCT-116 cells assessed as accumulation at Sub-G1 phase at 0.3 uM incubated for 24 hrs by RNaseA/propidium iodide staining based flow cytometry (reference value: 3.66 %); type: functional
HCT-116 [31] = experiment: Cell cycle arrest in human HCT-116 cells assessed as accumulation at G2/M phase at 0.15 uM incubated for 24 hrs by RNaseA/propidium iodide staining based flow cytometry (reference value: 28.41 %); type: functional
HCT-116 [32] = experiment: Induction of apoptosis in human HCT-116 cells assessed as viable cells at 0.3 uM incubated for 48 hrs by Annexin V-FITC/PI staining based flow cytometry analysis (Rvb= 94.18%); type: functional; settings: read-out: Activity
SW480 [33] = experiment: Induction of apoptosis in human SW480 cells assessed as upregulation of cleaved caspase-9 expression at 1.4 uM measured after 48 hrs by immunoblotting assay; type: functional, cell-based
[34] = Toxicity in Balb/c mouse xenografted with human HCT-116 cells assessed as body weight change at 1 mg/kg,ip administrated for 18 days by 3 times per week; type: organism-based; settings: in vivo, 432 h, time 18 day

Question: For `C[C@@H]1\C=C/C=C/C=C\C=C\C=C\C(=O)C2=C(O)C(=O)C[C@@]2(C)/C=C/C=C\C=C/C(=O)NC1`, which Activity (HCT-116 [1]) is on record?
Answer: Its Activity is “Active”.

Question: What about the Activity (SW480 [2]) of the same molecule?
Answer: Its Activity is “Active”.

Question: What about the Activity (HCT-116 [3]) of the same molecule?
Answer: Its Activity is 44.79%.

Question: What about the Activity (HCT-116 [4]) of the same molecule?
Answer: The Activity was “Active”.

Question: And the Activity (SW480 [5])?
Answer: Its Activity is “Active”.

Question: And the Activity (HCT-116 [6])?
Answer: Its Activity is “Active”.

Question: And the Activity (SW480 [7])?
Answer: Its Activity is “Active”.

Question: What about the IC50 (SW480 [8]) of the same molecule?
Answer: Its IC50 is 650 nM.

Question: And the Activity (HCT-116 [9])?
Answer: The Activity was 9.22%.

Question: And the Activity (SW480 [10])?
Answer: The Activity was 65.42%.

Question: And the Activity (HCT-116 [11])?
Answer: Its Activity is “Tde”.

Question: What about the Activity (HCT-116 [12]) of the same molecule?
Answer: Its Activity is 6.71%.

Question: What about the Activity (HCT-116 [13]) of the same molecule?
Answer: The Activity was 22.13%.

Question: And the Activity (HCT-116 [14])?
Answer: The Activity was “Active”.

Question: And the Activity (HCT-116 [15])?
Answer: The Activity was 29.02%.

Question: And the Activity (HCT-116 [16])?
Answer: Its Activity is “Active”.

Question: What about the IC50 (HCT-116 [17]) of the same molecule?
Answer: The IC50 was 140 nM.

Question: And the Activity (HCT-116 [18])?
Answer: Its Activity is “Active”.

Question: And the Activity (HCT-116 [19])?
Answer: Its Activity is “Dde”.

Question: And the Activity (HCT-116 [20])?
Answer: The Activity was “Active”.

Question: What about the Activity (SW480 [21]) of the same molecule?
Answer: Its Activity is 19.26%.

Question: What about the viability at 0.15 µM (HCT-116 [22]) of the same molecule?
Answer: Its viability at 0.15 µM is 74.9%.

Question: And the Activity (HCT-116 [23])?
Answer: The Activity was “Active”.

Question: And the Activity (SW480 [24])?
Answer: The Activity was 15.86%.

Question: What about the Activity (SW480 [25]) of the same molecule?
Answer: The Activity was 12.31%.

Question: What about the Activity (HCT-116 [26]) of the same molecule?
Answer: Its Activity is 0.18%.

Question: And the Activity (HCT-116 [27])?
Answer: Its Activity is 67%.

Question: What about the Activity (SW480 [28]) of the same molecule?
Answer: The Activity was “Active”.

Question: And the Activity (HCT-116 [29])?
Answer: Its Activity is 0.18%.

Question: What about the Activity (HCT-116 [30]) of the same molecule?
Answer: The Activity was 5.19%.

Question: And the Activity (HCT-116 [31])?
Answer: Its Activity is 21.81%.

Question: And the viability at 0.3 µM (HCT-116 [32])?
Answer: The viability at 0.3 µM was 40.1%.

Question: And the Activity (SW480 [33])?
Answer: Its Activity is “Active”.

Question: And the Activity [34]?
Answer: Its Activity is “Non-Toxic”.
